Experimental data taken from patent EP4775199A1, “DRUG-RELEASING ELECTROACTIVE IMPLANT FOR NERVOUS SYSTEM REPAIR” (priority 2023, dated 2025).
Entries after “also recorded” stand apart in the source; their conditions may differ.

Columns and labels:
meningeal fibroblasts = assay type: cell-based, rat; settings: 10 nM SB743921, 48 hours; control almost 90 %
Method: Meningeal fibroblasts were cultured from adult rat dura mater and arachnoid mater in the presence of fetal bovine serum following published procedures (Collazos-Castro JE, Polo JL, Hernández-Labrado […]. Bioelectrochemical Control of Neural Cell Development on Conducting Polymers. Biomaterials 2010;31:9244-9255). […] The behavior of living cells was studied by means of videomicroscopy, capturing images every 30 minutes for 48 hours. In separate cultures, cell proliferation was also studied by means of the incorporation of 5-ethynyl-2'-deoxyuridine (EdU).

[1] = Systemic (subcutaneous) administration of SB743921 after spinal cord transection; assay type: in vivo, rats; settings: rat, in vivo, every 12 hours, starting 12 hours post-injury, at 7 DPI
Method: (§1) A spinal transection model in adult male Wistar rats was used. Experimental protocols followed European Commission regulations and Spanish legislation for the protection of experimental animals (86/609/EEC, 32/2007, and 223/1988) and were approved by the Ethical Committee for Animal Experimentation of the Hospital Nacional de Parapléjicos of Toledo, Spain. In summary, animals were anesthetized by intraperitoneal (IP) injection of pentobarbital (50 mg/kg) and xylazine (10 mg/kg), providing supplemental doses of 30% one and a half hours later as needed. There were also administered atropine (0.04 mg/kg, IP) to decrease bronchial secretions, marbofloxacin as a prophylactic antibiotic, and ophthalmic ointment to prevent corneal abrasion. A dorsal laminectomy of the T9-T10 vertebrae, under which the T10 and T11 spinal segments are located, respectively, was performed. A small diagonal cut was made in the dura mater, followed by complete spinal cord transection. After a second more rostral cut, the tissue in between was extirpated leaving a neural tissue gap of about 2 mm (Figure 1A). Bleeding was controlled by introducing a fragment of Espongostan® into the cavity, which was removed once hemostasis was achieved. Durorrhaphy was then performed with simple stitches using 10-0 thread; and finally, the muscles and skin were sutured in layers.
(§2) The same spinal cord transection model described in Example 1 was used, in other words, a 2 mm neural gap was created and the dura mater was sutured without other treatments at the injured site. The drug was dissolved in water at 0.8 mg/ml and administered subcutaneously (SC).
(§3) Neural damage, Fibrosis development, inflammation, and repair responses (axonal growth, glial migration, blood vessel growth) were evaluated by means of immunohistochemical staining for axons (neurofilament, NF, Sigma-Aldrich N0142; serotonin, ImmunoSolution IG1112; tyrosine hydroxylase, TH, Sigma AB152), neuronal somas and their dendrites (microtubule-associated protein, MAP2, Sigma M1406), astroglia (glial fibrillary acidic protein, GFAP, BD Biosciences 556327); pericytes and fibroblasts (PDGFR, Abcam AB32570; type IV collagen, Meridian, T40251R), macrophages and microglia (ED1; Chemicon MAB 1435; isolectin B4, Fisher I21411), and endothelial cells (RECA1, Bio-Rad, MCA970R).

[2] = test system: rats with spinal cord transection; assay: as above; assay type: in vivo; settings: for Reduction of fibrosis: 7 DPI
Method: as §1, §2, §3

[3] = test system: rats with spinal cord transection
[4] = regimen a: 1 mg/kg subcutaneous, one dose every 24 hours for 2, 4, or 6 days, starting 12 hours post-injury
[5] = regimen b: 1 mg/kg SC, 5 doses, every 12 hours, starting 12 hours post-injury
[6] = regimen c: 1 mg/kg SC, 4 doses, every 12 hours, starting 24 hours post-injury
[7] = regimen e: 1,125 mg/kg SC, 4 doses, every 12 hours, starting 12 hours post-injury

SMILES: Cc1ccc(C(=O)N(CCCN)[C@@H](c2oc3cc(Cl)ccc3c(=O)c2Cc2ccccc2)C(C)C)cc1 [SB743921]
- cells that incorporated EdU (meningeal fibroblasts): 20%
- mortality at 168 h ([1]; 1.125 mg/kg, regimen e: 1,125 mg/kg SC, 4 doses): > 90%
- mortality at 168 h ([1]; regimen b: 1 mg/kg SC, 5 doses): > 50%
- neural tissue gap ([2]; Figure 3, 7 DPI, GFAP and MAP2 labeling, initial gap 2 mm): less than 500 µm
- fibrosis (PDGFR) ([2]; Figure 3, 7 DPI, regimen not stated): partial reduction
- Neural tissue damage ([2]; rat, in vivo, sc, 1 mg/kg): Severe spinal atrophy with 6 doses.
- Systemic adverse effects [2, 4]: No detected in the period of survival (7 days post-injury, DPI).
- Reduction of fibrosis [2, 4]: Slight reduction from the 4th dose.
- signs of neurotoxicity in the perilesional tissue ([2]; regimen b): no obvious signs of neurotoxicity
- Neural tissue damage [2, 5]: Mild microhemorrhages.
- Systemic adverse effects [2, 5]: Diarrhea, peritonitis
- Reduction of fibrosis [2, 5]: partially reduced fibrosis; also recorded: Partial
- animals that had died 7 DPI ([2]; regimen b, signs of enterocolitis and bacterial translocation or intestinal perforation): Four of the seven
- Neural tissue damage [2, 6]: Increases due to inflammation.
- Reduction of fibrosis [2, 6]: Inconsistent.
- Reduction of fibrosis ([2]; regimen d: 1 mg/kg SC, 4 doses, every 12 hours, starting 12 hours post-injury): Inconsistent.
- Neural tissue damage [2, 7]: Inconsistent.
- Systemic adverse effects [2, 7]: Diarrhea, peritonitis
- Reduction of fibrosis [2, 7]: Inconsistent.

SMILES: Cc1ccc(NC(=O)c2ccc(CN3CCN(C)CC3)cc2)cc1Nc1nccc(-c2cccnc2)n1 [imatinib]
- safety (death, adverse effects) ([3]; imatinib regimen a: 4 doses of 5 mg/kg SC, every 12 hours, starting 12 hours post-injury, with implant and ES): completely safe
- inflammatory cells in the perilesional spinal segments ([3]; imatinib regimen a: 4 doses of 5 mg/kg SC, every 12 hours, with implant and ES): reduced presence of inflammatory cells
- PDGFR+ residual fibrotic tissue in the injury site ([3]; imatinib regimen b: regimen a and additionally 5 mg/kg everyday until the end of electrostimulation, with implant and ES): practically eliminated
- cases with separation of the stumps of the spinal cord ([3]; imatinib regimen b, with implant and ES): two thirds
- distance between the astrocyte front of the stumps ([3]; imatinib regimen b, with implant and ES, 14 DPI, remaining one-third of the animals): about 400 µm
- axonal extension and branching ([3]; implant with ES combined with subcutaneous imatinib versus implant with ES alone): significantly increasing axonal extension and branching
